Measured values from PubChem BioAssay AID372 (MTDP, 2006).
Active and inactive are the calls of the source. No stated cut-off is given here; in the data, active means inhibition above about 50%; inactive means the rest.

Each compound was assayed against Gag-Pol polyprotein (Human immunodeficiency virus type 1 group M subtype B (isolate HXB2)) (UniProt P04585) (assay: RNase H inhibition, HIV 1 Gag Pol polyprotein, FRET biochemical assay, screening (AID 372)). Settings: HIV-1 RT RNase H, FRET RNA/DNA substrate fluorescence.

SMILES | IC50
Cc1ccc(S(=O)(=O)N=C2C=CC(=O)C=C2)c(C)c1 | 1.9 µM
COc1ccc(N2C(=O)/C(=C\c3cn(CC(=O)Nc4ccccc4)c4ccccc34)C(=O)NC2=S)cc1 | 5 µM
CCN1C(=O)/C(=C/c2ccoc2)C(=O)NC1=S | 40 µM
COc1ccc(N2C(=O)/C(=C/c3ccc(I)o3)C(=O)NC2=S)cc1 | 3.7 µM
Cc1ccc(C)n1-c1ccc(SCC(=O)O)cc1 | 8 µM
O=C(Nc1ccc(N2CCN(C(=O)c3ccccc3)CC2)cc1)c1ccc(-c2ccccc2)cc1 | 4.2 µM
O=c1oc2ccccc2c(O)c1/C=C1\C=Nc2ccccc21 | 3.2 µM
Cc1sc(NC(=O)c2ccc(Br)o2)c(C(N)=O)c1C | 5.5 µM
O=C(N/N=C/c1ccccc1Cl)c1cc(O)c(O)c(O)c1 | 0.6 µM
Cc1sc(NC(=O)C2CC3CCC2C3)c(C(N)=O)c1C (stereo not given) | 13 µM
C=CCN1C(=O)/C(=C\c2ccc([N+](=O)[O-])o2)C(=O)NC1=S | 75 µM
Cc1ccc(C(=O)Nc2sc(C)c(C)c2C(N)=O)cc1 | 0.6 µM
Cc1ccc(NC(=O)c2c(NC(=O)c3ccccc3F)sc3c2CCCCC3)cc1 | inactive
NC(=O)c1c(NC(=O)CCc2ccccc2)sc2c1CCCCCC2 | 1.5 µM
O=C1c2ccccc2C(=O)N1c1ccc(-c2nc3ccc(N4C(=O)c5ccccc5C4=O)cc3[nH]2)cc1 | 4 µM
O=C(O)C1Nc2c(Cl)cc(Cl)cc2C2C=CCC12 (stereo not given) | 72 µM
O=C1/C(=C\c2ccc(O)c(O)c2)SC(=S)N1c1cccc(Cl)c1 | 4.5 µM
O=C1C(Cl)=C/C(=N\S(=O)(=O)c2ccc(Cl)cc2)C(Cl)=C1Cl | 4 µM
Cc1sc(NC(=O)c2ccco2)c(C(N)=O)c1C | 3.2 µM
Cc1cc(C)c2c(=O)[nH]c(SCC(=O)c3ccc(O)c(O)c3)nc2n1 | 3.4 µM
Cc1onc(-c2ccccc2)c1C(=O)Nc1sc(C)c(C)c1C(N)=O | inactive
Cc1sc(NC(=O)c2ccc3c(c2)OCO3)c(C(N)=O)c1C | inactive
Cc1nn(CC(=O)Nc2sc(C)c(C)c2C(N)=O)c(C)c1[N+](=O)[O-] | 4.3 µM
C=CCn1c(N)c(-c2nc3ccccc3[nH]2)sc1=S | 2.8 µM
CC(C)OC(=O)c1cc(O)c(O)c(O)c1 | 1.3 µM
